Counter-ions that a name gives are not always drawn.
How the values were obtained:
[1] = tested on: 22RV1 cells; assay: Experiment 1 on inhibiting 22RV1 cell proliferation (5 days, CellTiter-Glo); format: cell-based; details: 1% css-FBS phenol red-free medium, incubated with compound 5 days, read-out: IC50 values on proliferation inhibition of 22RV1 cells
Procedure: Prostate cancer cells 22RV1 were purchased from ATCC, the cell medium was RPMI 1640+10% FBS, and the cells were cultured in an incubator at 37° C. under 5% CO2. On day 1, the cells in an exponential phase were collected. With a 1% css-FBS phenol red-free medium, the cell suspension was adjusted to a corresponding concentration, plated at 2000 cells/well and incubated overnight. On day 2, compounds at different concentrations were added, and the plate was placed in the incubator and incubated for further 5 days. After the incubation was completed, according to operation instructions for a CellTiter-Glo kit (Promega, G7573), 50 μL of CTG solution, which was already pre-melted and equilibrated to room temperature, was added to each well, and the mixtures were uniformly mixed for 2 min using a microplate shaker. The plate was placed at room temperature for 10 min, and then fluorescence signal values were measured using a microplate reader (PHERAstar FSX). The results were processed according to formula (1), the survival rate of the compound at different concentrations was calculated, and the IC50 value of the compound with a survival rate of 50% was calculated using origin9.2 software with DoseResp function, wherein RLUcompound was the readout of the treated group, and RLUcontrol was the average value of the DMSO vehicle control group.

[2] = tested on: full-length AR (AR-FL); assay: Degradation experiment on full-length AR (AR-FL) in 22RV1 cells; format: cell-based; details: 24 h; for AR-FL Dmax % (maximum degradation rate): relative to vehicle control
Procedure: (§1) Prostate cancer cells 22RV1 were purchased from ATCC, the cell medium was 1640+10% FBS, and the cells were cultured in an incubator at 37° C. under 5% CO2. On day 1, the cells in an exponential phase were collected. With a 1% css-FBS phenol red-free medium, the cell suspension was adjusted to a corresponding concentration and plated into a 6-well plate at 1 mL/well and 100000 cells/well. The next day, a 1% css-FBS phenol-free medium containing the compound to be tested was added, a 1% css-FBS phenol-free medium containing 0.2% DMSO was added to one well as DMSO vehicle control, and the 6-well plate was cultured in an incubator at 37° C. under 5% CO2. After 24 h, the cells were digested with pancreatin and collected into a 1.5 mL centrifuge tube. 15 μL of RIPA lysate (containing 1×protease inhibitor cocktail) was added to each well, and the cells were lysed on ice for 15 min and then centrifuged at 12000 g and 4° C. for 10 min. The supernatant protein samples were collected, and protein quantification was performed by a BCA method. AR-FL and AR-Vs were detected using fully automatic protein expression quantitative analysis, which involved diluting the protein to be tested to 1 mg/mL. 4 μL of the diluted protein samples were added to 1 μL of 5×Master Mix (provided in the kit), and the prepared samples were denatured at 95° C. for 5 min and placed on ice for use. The primary antibodies, AR (CST, 5153S) and β-actin (CST, 3700), were diluted with Antibody Diluent II (provided in the kit) at a dilution ratio of 1:20 and 1:200, respectively. The secondary antibody was a mixed goat anti-mouse and goat anti-rabbit secondary antibody in a ratio of 1:1, and the color development solution was a mixed solution of Lumino-S and Peroxide in a ratio of 1:1. The prepared reagents were successively added to an assay plate according to instructions of the kit and detected on an instrument. Western blot band processing was performed using “Compass for SW”, a fully automatic protein expression quantitative analysis software, in which western blot bands were automatically simulated based on signal values. The degradation rate of AR-FL (3) or AR-Vs (4) relative to vehicle control at different compound concentrations was calculated according to formulas (3) and (4), wherein AR-FLcompound was the relative peak area of AR-FL in the treated group, and AR-FLsolvent was the relative peak area of AR-FL in the vehicle control group; AR-Vscompound was the relative peak area of AR-Vs in the treated group, and AR-Vssolvent was the relative peak area of AR-Vs in the vehicle control group.
(§2) DC50 calculation: the compound concentration DC50 values at which the degradation rate of AR-FL or AR-Vs was 50% were calculated using OriginPro2015 software and analyzed using DoseResp function according to formula (3) or (4).

[3] = tested on: 22RV1 cells; assay: Experiment 2 on inhibiting 22RV1 cell proliferation (7 days, CellTiter-Glo); format: cell-based; details: Homo sapiens, 22Rv1, 168 h, 1% css-FBS phenol red-free medium, incubated with compound 7 days, read-out: IC50 values on proliferation inhibition of 22RV1 cells
Summary of the method: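 22RV1 cells plated at 2000/well in phenol red-free medium with 1% css-FBS and treated next day with compound for 7 days at 37 °C. Viability read by CellTiter-Glo luminescence relative to DMSO vehicle; IC50 from dose-response fit.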

[4] = tested on: AR splice variants (AR-Vs); assay: Degradation experiment on AR splice variants (AR-Vs) in 22RV1 cells; format: cell-based; details: 24 h; for AR-Vs Dmax % (maximum degradation rate): relative to vehicle control
Procedure: as §1, §2

[5] = Pharmacokinetic test in rats; format: in vivo; details: rat, po; male SD rats, single dose i.g. 5 mg/kg, plasma, 0-24 h
Procedure: Test objective: in this test, a single dose of test compounds was administered to SD rats intragastrically, and the concentrations of the test compounds in plasma of the rats were measured to evaluate pharmacokinetic characteristics of the test compounds in the rats.
Test animals: male SD rats, 200-250 g, 6-8 weeks old, 3 rats/compound, purchased from Chengdu Dossy Experimental Animals Co., Ltd.
(§3) Test method: on the day of the test, 3 SD rats were randomly grouped according to their body weights. The animals were fasted with water available for 12 to 14 hours one day before the administration of a test compound, and were fed 4 hours after the administration.
Sampling: before and after the administration, 0.1 mL of blood was taken from the orbits of the rats under isoflurane anesthesia, and placed in an EDTAK2 centrifuge tube. Centrifugation was carried out at 5000 rpm at 4C for […], and the plasma was collected.
Time points for plasma collection in G1 group: 0, 5 min, 15 min, 30 min, 1 h, 2 h, 4 h, 6 h, 8 h, and 24 h.
Before analysis and detection, all samples were stored at −80° C. The samples were analyzed quantitatively by LC-MS/MS.

[6] = Pharmacokinetic test in beagle dogs; format: in vivo; details: dog, plasma, oral; male beagle dogs, i.v. 1 mg/kg and i.g. 10 mg/kg, single dose
Procedure: Test objective: a single dose of test compounds was administered to beagle dogs intravenously and intragastrically, and the concentrations of the test compounds in plasma of the beagle dogs were measured to evaluate pharmacokinetic characteristics of the test compounds in the beagle dogs.
Test animals: male beagle dogs, about 8-11 kg, 6 beagle dogs/compound, purchased from Beijing Marshall Biotechnology Co., Ltd.
as §3, with “6 beagle dogs” for “3 SD rats”, “administration. The administration was performed according to Table 10.” for “administration.”
Sampling: before and after the administration, 1 ml of blood was taken from the limb veins, and placed in an EDTAK2 centrifuge tube. Centrifugation was carried out at 5000 rpm at 4° C. for 10 min, and the plasma was collected.
Time points for blood collection: 0 min, 5 min, 15 min, 30 min, 1 h, 2 h, 4 h, 6 h, 8 h, 10 h, 12 h and 24 h. Before analysis and detection, all samples were stored at −80° C. The samples were analyzed quantitatively by LC-MS/MS.

[7] = degradation rate 50% relative to vehicle control

IC50 [1] | IC50 [3] | AUC(0-t) [5] | SMILES | AR-FL Dmax % (maximum degradation rate) [2] | AR-Vs Dmax % (maximum degradation rate) [4] | other results
835 nM |  |  | O=C1CCC(N2C(=O)c3ccc(N4CCN(CC5CCN(S(=O)(=O)Nc6ccc(Cl)cc6C(=O)Nc6ccc(C(F)(F)F)cc6Cl)CC5)CC4)cc3C2=O)C(=O)N1 (stereo not drawn) [Compound 1, 5-chloro-N-(2-chloro-4-(trifluoromethyl)phenyl)-2-{[(4-[(4-(2-(2,6-dioxopiperidin-3-yl)-1,3-dioxo-2,3-dihydro-1H-isoindol-5-yl)piperazin-1-yl)methyl]piperidin-1-yl)sulfonyl]amino}benzamide] |  |  | IC50 ([1]; Homo sapiens, 22Rv1, 120 h): 500 to 1500 nM
594 nM |  |  | O=C1CCC(N2C(=O)c3ccc(N4CC(N5CCN(S(=O)(=O)Nc6ccc(Cl)cc6-c6nc7cc(C(F)(F)F)cc(Cl)c7[nH]6)CC5)C4)cc3C2=O)C(=O)N1 (stereo not drawn) [Compound 2, N-(4-chloro-2-(7-chloro-5-(trifluoromethyl)-1H-1,3-benzodiazol-2-yl)phenyl)-4-(1-(2-(2,6-dioxopiperidin-3-yl)-1,3-dioxo-2,3-dihydro-1H-isoindol-5-yl)azetidin-3-yl)piperazine-1-sulfonamide] |  |  | IC50 ([1]; Homo sapiens, 22Rv1, 120 h): 500 to 1500 nM
1240 nM |  |  | O=C1CCC(N2C(=O)c3ccc(N4CCC(CN5CCN(S(=O)(=O)Nc6ccc(Cl)cc6C(=O)Nc6ccc(C(F)(F)F)cc6Cl)CC5)CC4)cc3C2=O)C(=O)N1 (stereo not drawn) [Compound 3, 5-chloro-N-(2-chloro-4-(trifluoromethyl)phenyl)-2-((4-((1-(2-(2,6-dioxopiperidin-3-yl)-1,3-dioxoisoindolin-5-yl)piperidin-4-yl)methyl)piperazine)-1-sulfonamido)benzamide] |  |  | 
 | 899 nM | 740 ± 362 ng·h/mL | Cn1c(=O)n(C2CCC(=O)NC2=O)c2ccc(N3CCC(C4CCN(CC5CCN(c6nccc(COc7ccc(C(C)(C)c8cc(Cl)cc(C#N)c8)cc7)n6)CC5)CC4)CC3)cc21 (stereo not drawn) [Compound 88 trifluoroacetate, 3-chloro-5-(2-(4-((2-(4-((1′-(1-(2,6-dioxopiperidin-3-yl)-3-methyl-2-oxo-2,3-dihydro-1H-benzo[d]imidazol-5-yl)-[4,4′-bipiperidin]-1-yl)methyl)piperidin-1-yl)pyrimidin-4-yl)methoxy)phenyl)propan-2-yl)benzonitrile] | 64% | 73% | 
 | 678 nM | 1700 ± 335 ng·h/mL | CCOc1c(Cl)cc(C(C)(C)c2ccc(OCc3ccnc(N4CCC(CN5CCC(C6CCN(c7ccc8c(c7)n(C)c(=O)n8C7CCC(=O)NC7=O)CC6)CC5)CC4)n3)cc2)cc1C#N (stereo not drawn) [Compound 94 trifluoroacetate, 3-chloro-5-(2-(4-((2-(4-((1′-(1-(2,6-dioxopiperidin-3-yl)-3-methyl-2-oxo-2,3-dihydro-1H-benzo[d]imidazol-5-yl)-[4,4′-bipiperidin]-1-yl)methyl)piperidin-1-yl)pyrimidin-4-yl)methoxy)phenyl)propan-2-yl)-2-ethoxybenzonitrile] | 84% | 83% | 
 | 421 nM | 658 ± 133 ng·h/mL | COc1c(Cl)cc(C(C)(C)c2ccc(OCc3ccnc(N4CCC(CN5CCC(C6CCN(c7ccc8c(c7)n(C)c(=O)n8C7CCC(=O)NC7=O)CC6)CC5)CC4)n3)cc2)cc1C#N (stereo not drawn) [Compound 97 trifluoroacetate, 3-chloro-5-(2-(4-((2-(4-((1′-(1-(2,6-dioxopiperidin-3-yl)-3-methyl-2-oxo-2,3-dihydro-1H-benzo[d]imidazol-5-yl)-[4,4′-bipiperidin]-1-yl)methyl)piperidin-1-yl)pyrimidin-4-yl)methoxy)phenyl)propan-2-yl)-2-methoxybenzonitrile (Compound 97) trifluoroacetate] |  |  | DC50 [2, 7]: 1180 nM; DC50 [4, 7]: 1070 nM
 |  |  | COc1c(Cl)cc(C(C)(C)c2ccc(OCc3ccnc(N4CCC(CN5CCC(C6CCN(c7ccc8c(c7)n(C)c(=O)n8C7CCC(=O)NC7=O)CC6)CC5)CC4)n3)cc2)cc1C#N (stereo not drawn) [Compound 97, 3-chloro-5-(2-(4-((2-(4-((1′-(1-(2,6-dioxopiperidin-3-yl)-3-methyl-2-oxo-2,3-dihydro-1H-benzo[d]imidazol-5-yl)-[4,4′-bipiperidin]-1-yl)methyl)piperidin-1-yl)pyrimidin-4-yl)methoxy)phenyl)propan-2-yl)-2-methoxybenzonitrile] |  |  | bioavailability [6]: > 15%
 | 821 nM |  | COc1c(Cl)cc(C(C)(C)c2ccc(OCc3ccnc(N4CCC(CN5CCC(N6CCC(c7ccc8c(c7)n(C)c(=O)n8C7CCC(=O)NC7=O)CC6)CC5)CC4)n3)cc2)cc1C#N (stereo not drawn) [Compound 116 trifluoroacetate, 3-chloro-5-(2-(4-((2-(4-((4-(1-(2,6-dioxopiperidin-3-yl)-3-methyl-2-oxo-2,3-dihydro-1H-benzo[d]imidazol-5-yl)-[1,4′-bipiperidin]-1′-yl)methyl)piperidin-1-yl)pyrimidin-4-yl)methoxy)phenyl)propan-2-yl)-2-methoxybenzonitrile] | 77% | 67% | 

— patent US20240383874A1, “BENZENE RING DERIVATIVE, AND COMPOSITION AND PHARMACEUTICAL USE THEREOF” (Xizang Haisco Pharmaceutical Co., Ltd., priority 2020, published 2024)
